Measured values published in PubChem BioAssay (NCI).
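Cells were grown in 96-well plates and exposed to each compound for 48 hours at five concentrations; endpoints were interpolated linearly between bracketing concentrations, or set to the highest concentration if not reached. TGI is the concentration that stops growth completely.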

Tests used:
Test in all cases: DTP human tumour cell line panel, 48 h
SF-268 CNS = system: SF-268 CNS
HOP-62 NSCLC = system: HOP-62 NSCLC
BT-549 breast = system: BT-549 breast
UACC-62 melanoma = system: UACC-62 melanoma
TK-10 renal = system: TK-10 renal
ACHN renal = system: ACHN renal
OVCAR-4 ovarian = system: OVCAR-4 ovarian
PC-3 prostate = system: PC-3 prostate
MALME-3M melanoma = system: MALME-3M melanoma
KM12 colon = system: KM12 colon
MDA-MB-231 breast = system: MDA-MB-231 breast
SF-539 CNS = system: SF-539 CNS
HT29 colon = system: HT29 colon
NCI/ADR-RES ovarian = system: NCI/ADR-RES ovarian
SK-MEL-2 melanoma = system: SK-MEL-2 melanoma
EKVX NSCLC = system: EKVX NSCLC
CCRF-CEM leukemia = system: CCRF-CEM leukemia
OVCAR-3 ovarian = system: OVCAR-3 ovarian
HL-60(TB) leukemia = system: HL-60(TB) leukemia

Row | Compound | TGI (SF-268 CNS) [µM] | TGI (HOP-62 NSCLC) [µM] | TGI (BT-549 breast) [µM] | TGI (UACC-62 melanoma) [µM] | TGI (TK-10 renal) [µM] | TGI (ACHN renal) [µM] | TGI (OVCAR-4 ovarian) [µM] | TGI (PC-3 prostate) [µM] | TGI (MALME-3M melanoma) [µM] | TGI (KM12 colon) [µM] | TGI (MDA-MB-231 breast) [µM] | TGI (SF-539 CNS) [µM] | TGI (HT29 colon) [µM] | TGI (NCI/ADR-RES ovarian) [µM] | TGI (SK-MEL-2 melanoma) [µM] | TGI (EKVX NSCLC) [µM] | TGI (CCRF-CEM leukemia) [µM] | TGI (OVCAR-3 ovarian) [µM] | TGI (HL-60(TB) leukemia) [µM]
1 | Nc1c(C(=O)c2ccccc2)nnc2ccccc12 | > 100 | > 100 | 72.7 | 45 | 54.7 | 65.4 | > 100 | 59.6 | 79.1 | 67.7 | 53.3 | 87.3 | > 100 | 64.6 | 38.3 | > 100 |  |  | 
2 | Cn1c(=O)n2n(c1=O)C(S(=O)c1ccccc1)C2 (centres undefined) | > 100 | > 100 | > 100 | > 100 | > 100 | > 100 | > 100 | > 100 |  | > 100 | > 100 | > 100 | > 100 | > 100 | > 100 | > 100 | > 100 | > 100 | 
3 | O[C@]12c3ccccc3C1CCCCC2N1CCOCC1 (some centres undefined) | > 100 | > 100 |  | > 100 | > 100 | > 100 | > 100 |  | > 100 | > 100 |  |  | > 100 |  | > 100 | > 100 | > 100 |  | > 100
4 | O=C1Nc2ccccc2C1S(=O)(=O)c1ccccc1 (centres undefined) | > 100 | > 100 | > 100 | > 100 | > 100 | > 100 | > 100 | > 100 | > 100 | > 100 | > 100 |  | > 100 | > 100 | > 100 | > 100 | > 100 | > 100 | 
5 | COc1cccc(-c2[nH]c3cc4c(cc3c(=O)c2C(=O)O)OCO4)c1 |  | > 100 | > 100 | > 100 |  | > 100 | > 100 | > 100 |  | > 100 | > 100 | 69.4 | > 100 | 47.3 | > 100 | > 100 | > 100 | > 100 | 
6 | CC(=O)O[C@H]1C[C@@H](OC(C)=O)[C@@](C)(O)[C@@H]2[C@@H](OC(C)=O)[C@@]3(O)[C@H](/C=C(/CCl)[C@H]4O[C@H]4[C@@H](OC(C)=O)[C@@]12C)OC(=O)[C@@H]3C | > 25 | > 25 | > 25 | > 25 | > 25 | > 25 | > 25 | > 25 | > 25 | > 25 | > 25 |  | > 25 | > 25 | > 25 | > 25 | > 25 | > 25 | 
7 | COc1cccc2c1[C@H]1OC(=O)NC1CCCCC2 (some centres undefined) | > 100 | > 100 |  | > 100 | > 100 | > 100 | > 100 |  | > 100 | > 100 |  | > 100 | > 100 |  | > 100 | > 100 | > 100 | > 100 | > 100
8 | C=CC1(O)CCCC=C1COCc1ccccc1 (centres undefined) | > 100 | > 100 |  | > 100 | > 100 | > 100 | > 100 | > 100 | > 100 | > 100 | > 100 |  | > 100 | > 100 | > 100 | > 100 | > 100 |  | 72.2
9 | C/C(CC(=O)Nc1cccc(Cl)c1C)=N\N=C(N)N | > 100 | > 100 |  | > 100 | > 100 | > 100 | > 100 |  | > 100 | > 100 |  | > 100 | > 100 |  | > 100 | > 100 | > 100 | > 100 | > 100
10 | CC(=O)c1sc2c(c1O)c(=O)n(-c1ccccc1)c(=S)n2-c1ccccc1 | > 100 |  | > 100 | > 100 | > 100 |  | > 100 |  | > 100 | > 100 | > 100 |  | > 100 |  | > 100 |  |  | > 100 | > 100
11 | CSc1nc(C)cc(=O)n1C1OC(COC(C)=O)C(OC(C)=O)C(OC(C)=O)C1OC(C)=O (centres undefined) | > 100 |  |  | > 100 | > 100 | > 100 | > 100 |  | > 100 | > 100 |  |  | > 100 |  | > 100 | > 100 | > 100 | > 100 | > 100
12 | C1=C(c2ccccc2)C(OC2Oc3ccccc3C=C2c2ccccc2)Oc2ccccc21 (centres undefined) | > 100 | > 100 |  | > 100 | > 100 | > 100 |  |  | > 100 | > 100 |  |  | > 100 |  | > 100 | > 100 | > 100 | > 100 | > 100
13 | COC(=O)C1(Cc2ccccc2)Cc2c(C)ccc(C)c2C1=O (centres undefined) | > 100 | > 100 |  | 54.8 | > 100 | > 100 | > 100 | 78.2 | 50.3 | 42.8 | 38.4 | > 100 | 69.8 | > 100 |  | > 100 | > 100 | 85.1 | 54
14 | O=C1CC(=O)NC(=NN2C(=O)/C(=C/c3ccc(Cl)cc3)N=C2c2ccccc2)N1 | 34.2 | 30.2 | 30.1 | 25.6 | 43.2 | 52.4 | 22.5 | 28.2 | 33.4 | 27.6 | 35.6 | 32.4 | 31.5 | 31.8 | 31.1 |  | 24.8 | 32.6 | 
15 | CCN(CCCl)c1cc(CN(C)C)cc(NC(=O)c2cc(C(=O)Nc3cc(CN(C)C)cc(N(CC)CCCl)c3)n(C)n2)c1 | 1.56 | 1.21 |  | 2.36 | 6.17 | 0.749 | 2.8 | 0.492 | 2.86 | 0.703 | 4.06 | 1.63 | 1.02 | 32.3 | 3.3 |  | 0.299 |  | 4.04
